Key:
RTL-W1 cell line [1] = assay: RTL-W1 neutral red assay (lysosome activity); type: cell-based, rainbow trout; settings: Oncorhynchus mykiss, 48 h incubation
Description: The RTL-W1 cell line, a non-transformed rainbow trout liver cell line that has already been used in environmental toxicity assays, was established from the normal liver of an adult rainbow trout by proteolytic dissociation of liver fragments. RTL-W1 cells were cultured in 75 cm^2 culture flasks (Orange Scientific, Braine l’Alleud, Belgium) at 20 °C in Leibovitz’s (L-15, Sigma-Aldrich, St. Louis, MO, USA) medium supplemented with 5% fetal bovine serum (FBS) and 1% L-glutamine in CO2-free incubator. For the cytotoxicity assays of the selected secondary metabolites, cells were seeded at 3 × 10^4 cells/well density in a 96-well tissue culture plate (Orange Scientific Braine l’Alleud, Belgium) in 100 μL culture medium/well for 2 days before the assays. Three different cytotoxicity protocols were used: 1) The alamar blue/resazurin fluorometric/colorimetric cell viability assay to assess the metabolic capacity and mitochondrial function; 2) the crystal violet cell viability assay for indirect quantification of cell death; and 3) the neutral red cell proliferation assay for lysosomal activity. Two days after seeding the cells, cultures were incubated with various concentrations of selected secondary metabolites at 20 °C for 48 h before cell viability was assessed. […] For the alamar blue/resazurin fluorometric/colorimetric cell viability assay, 100 μL of 3 μg/100 μL Resazurin sodium salt (Sigma-Aldrich, St. Louis, MO, USA) in incubation medium was added on each well and incubated under sterile conditions at 20 °C for 4 h. For the crystal violet cell viability assay, after 48 h of incubation with each secondary metabolite, the culture medium was aspirated and cells were washed twice with sterile dd. H2O. The final wash was aspirated and 50 μL of 0.5% (w/v) crystal violet staining solution (20% methanol in dd. H2O) was added to each well followed by incubation for 20 min at room temperature on a bench rocker with a frequency of 20 oscillations per minute. The staining solution was then aspirated and the plate was washed four times with sterile dd. H2O and left to air-dry without its lid for 3 h at room temperature. Next, 200 μL of methanol was added to each well, and the plate was incubated with its lid on for 20 min at room temperature on a bench rocker with a frequency of 20 oscillations per minute. […] Absorbance was read at 570 nm for alamar blue/resazurin and crystal violet and at 540 nm for neutral red using a Tecan infinite M200 Pro microplate reader. […] Calculations were carried out using detailed formulas (AbCam, Cambridge, UK, and results were analyzed with GraphPad Prism v.6. […]

Chaetoceros gracilis = Chaetoceros gracilis toxicity (phytoplankton growth) assay; type: cell-based; settings: for EC50: Chaetoceros neogracilis, 96 h
Description: For phytoplankton growth toxicity assays, the criterion for assay validity was that the cell count of the negative control after 96 h should be ≥2 × 10^5 cells/mL [40].
The centric marine diatom C. gracilis Schütt (strain CCMP1315) was grown photoautotrophically in autoclaved artificial seawater (sea salts; Sigma-Aldrich, St. Louis, MO, USA) (30‰) supplemented with F/2 (half-strength medium f as subsequently modified) in 100 mL medium at 20 °C and with ambient air bubbled in the media. By monitoring cell density, an adjusted culture of >1 × 10^6 cells/mL was used for the toxicity assays. At 96 h, a 0.9 mL aliquot of each treatment was sampled, mixed with 0.1 mL Lugol and cell density was counted. Experiments were assumed valid if cell count in the control after 96 h was […].
(§1) For EC50 or IC50 (the concentration that results in 50% stimulation or inhibition relative to the control) calculations in GraphPad Prism v.6, all data were fitted to the curve according to the following models for normalized response: Y = 100/(1 + 10^((X − LogIC50))) or Y = 100/(1 + 10^((LogEC50 − X))) depending on the trend of the curve.

HEK293 cell line = assay: HEK293 crystal violet assay (cell viability); type: cell-based, human; settings: for cytotoxicity in crystal violet assay (in words): HEK293; for EC50: Homo sapiens, HEK293, Crystal violet assay, 48 h incubation
Description: (§2) The RTL-W1 cell line, a non-transformed rainbow trout liver cell line that has already been used in environmental toxicity assays, was established from the normal liver of an adult rainbow trout by proteolytic dissociation of liver fragments. RTL-W1 cells were cultured in 75 cm^2 culture flasks (Orange Scientific, Braine l’Alleud, Belgium) at 20 °C in Leibovitz’s (L-15, Sigma-Aldrich, St. Louis, MO, USA) medium supplemented with 5% fetal bovine serum (FBS) and 1% L-glutamine in CO2-free incubator. For the cytotoxicity assays of the selected secondary metabolites, cells were seeded at 3 × 10^4 cells/well density in a 96-well tissue culture plate (Orange Scientific Braine l’Alleud, Belgium) in 100 μL culture medium/well for 2 days before the assays. Three different cytotoxicity protocols were used: 1) The alamar blue/resazurin fluorometric/colorimetric cell viability assay to assess the metabolic capacity and mitochondrial function; 2) the crystal violet cell viability assay for indirect quantification of cell death; and 3) the neutral red cell proliferation assay for lysosomal activity. Two days after seeding the cells, cultures were incubated with various concentrations of selected secondary metabolites at 20 °C for 48 h before cell viability was assessed. […] For the alamar blue/resazurin fluorometric/colorimetric cell viability assay, 100 μL of 3 μg/100 μL Resazurin sodium salt (Sigma-Aldrich, St. Louis, MO, USA) in incubation medium was added on each well and incubated under sterile conditions at 20 °C for 4 h. For the crystal violet cell viability assay, after 48 h of incubation with each secondary metabolite, the culture medium was aspirated and cells were washed twice with sterile dd. H2O. The final wash was aspirated and 50 μL of 0.5% (w/v) crystal violet staining solution (20% methanol in dd. H2O) was added to each well followed by incubation for 20 min at room temperature on a bench rocker with a frequency of 20 oscillations per minute. The staining solution was then aspirated and the plate was washed four times with sterile dd. H2O and left to air-dry without its lid for 3 h at room temperature. Next, 200 μL of methanol was added to each well, and the plate was incubated with its lid on for 20 min at room temperature on a bench rocker with a frequency of 20 oscillations per minute. For the neutral red cell proliferation assay, after 48 h of incubation with each secondary metabolite, the culture medium was aspirated and cells were washed twice with phosphate-buffered saline (PBS, pH 7.4). Cells were then incubated with 100 μL of a 40 μg/mL neutral red staining solution in culture medium at 20 °C for 4 h followed by two washes with 150 μL of PBS. Then cells were incubated with 100 μL neutral red destain solution (50% ethanol, 49% dd. H2O, 1% glacial acetic acid) for 10 min on a bench rocker with a frequency of 80 oscillations per minute. Absorbance was read at 570 nm for alamar blue/resazurin and crystal violet and at 540 nm for neutral red using a Tecan infinite M200 Pro microplate reader. For each assay and each secondary metabolite, a minimum of four independent dose–response experiments with three replicates each were carried out. Calculations were carried out using detailed formulas (AbCam, Cambridge, UK, and results were analyzed with GraphPad Prism v.6.
HEK293 cells, a human embryotic kidney cell line, were obtained from ATCC (ATCC® CRL-1573™) at passage 37 of the original clone and used at passage 38. Cells were cultured routinely in 75 cm^2 culture flasks (Orange Scientific, Braine l’Alleud, Belgium) at 37 °C (5% CO2) in DMEM cell culture medium (Biosera) supplemented with 10% FBS (Sigma-Aldrich, St. Louis, MO, USA) and 1% L-glutamine. All assay conditions and protocols were identical to those described above for RTL-W1 cells with the exception that incubations were carried out at 37 °C. […]

RTL-W1 cell line [2] = assay: RTL-W1 crystal violet assay (cell viability); type: cell-based, rainbow trout; settings: for EC50: Oncorhynchus mykiss, RTL-W1, Crystal violet assay, 48 h incubation; for crystal violet assay EC50 (in words): RTL-W1
Description: as §2, §1

SMILES	EC50 (RTL-W1 cell line [1]) [µM]	inhibition of C. gracilis growth (in words) (Chaetoceros gracilis)	EC50 (Chaetoceros gracilis) [µM]	cytotoxicity in crystal violet assay (in words) (HEK293 cell line)	EC50 (HEK293 cell line) [µM]	EC50 (RTL-W1 cell line [2]) [µM]	crystal violet assay EC50 (in words) (RTL-W1 cell line [2])
CC(C)[C@@H]1CC=C[C@H]2[C@H]3[C@](C)(CC[C@]12CBr)[C@@H](Br)CC[C@@]3(C)O [Bromosphaerol, reference compound]	144	very potent inhibitor of C. gracilis growth	4.34	mild cytotoxicity	97.1	0.575	sub-micromolar
CC1=C2CC[C@@](C)(Cl)[C@@H](Br)C[C@]2(C)[C@@H](C)[C@@H](Br)[C@@H]1O [Compound 9, perforenol]	> 1000		49.8	mild cytotoxicity	81.1	16	
C=CC(C)(O)CC[C@@H]1C(=C)CC[C@@H](Br)[C@@]1(C)CCC1OC1(C)C (stereo partly drawn) [Compound 18]	138		10.7		> 1000	0.456	sub-micromolar
C=C(C1CCC(C)(O)C(Br)C1)C1C(Br)C2C(CCC2(C)O)C1(C)C (stereo not drawn) [Compound 19, neorogioldiol]	> 1000		352		434	12.8	
